# Measured values: US20070292483A1, “REDUCING MUSCLE SORENESS WITH GLUCOSAMINE COMPOSITIONS” (Stokely-Van Camp, Inc., priority 2006, published 2007)
# Assay: storage study of relatively neutral pH beverage compositions containing glucosamine
# Type: physicochemical
# Protocol: Special considerations in packaging, shipping, and or formulations may also be considered when delivering a targeted amount of glucosamine in the beverage compositions. As an example, shake-type beverages, such as the beverage composition provided in Table 3, are generally formulated to have a relatively neutral pH value.
# Such a formulation was determined to deliver 1,500 mg of glucosamine based on results from a storage study. During the study, in which such beverages were stored for a period of 12 months at ambient (73 degrees Fahrenheit) temperature, it was determined that approximately 77% of glucosamine originally present had degraded during a 12 month storage period. Thus, information regarding the average shelf-life and/or delivery mechanisms for specific products may be utilized when formulating the beverage compositions. Such factors may include the temperature, time to consumption, packaging the compositions are stored within, among others.
"glucosamine originally present that had degraded during storage (relatively neutral pH beverage, around about 20 mg/ml glucosamine, stored 12 months at ambient (73 degrees Fahrenheit) temperature)",degradation rate in beverage (formulated in beverages having neutral pHs (shake-type)),Compound
approximately 77%,,N[C@H]1C(O)O[C@H](CO)[C@@H](O)[C@@H]1O (some centres unmarked) [glucosamine]
,degrades at a quickened rate,"Cl.N[C@H]1C(O)O[C@H](CO)[C@@H](O)[C@@H]1O (some centres unmarked) [Glucosamine hydrochloride, glucosamine hydrochloride]"
